Tests used:
[1] = molecular target: T1, soluble guanylate cyclase with a trivalent heme iron (Bos taurus, UniProt P16068); assay: Activation of soluble guanylate cyclase after oxidation of the heme iron (enzyme stored at 4° C. for about 7 days); format: biochemical, bovine; settings: sGC with trivalent heme iron, prepared by storing freshly prepared enzyme at 4° C. for about 7 days
T1 construct: suitably diluted sGC enzyme solution (isolated from bovine lung); from tissue; host or cells: bovine lung
T1 sequence (P16068 1-619): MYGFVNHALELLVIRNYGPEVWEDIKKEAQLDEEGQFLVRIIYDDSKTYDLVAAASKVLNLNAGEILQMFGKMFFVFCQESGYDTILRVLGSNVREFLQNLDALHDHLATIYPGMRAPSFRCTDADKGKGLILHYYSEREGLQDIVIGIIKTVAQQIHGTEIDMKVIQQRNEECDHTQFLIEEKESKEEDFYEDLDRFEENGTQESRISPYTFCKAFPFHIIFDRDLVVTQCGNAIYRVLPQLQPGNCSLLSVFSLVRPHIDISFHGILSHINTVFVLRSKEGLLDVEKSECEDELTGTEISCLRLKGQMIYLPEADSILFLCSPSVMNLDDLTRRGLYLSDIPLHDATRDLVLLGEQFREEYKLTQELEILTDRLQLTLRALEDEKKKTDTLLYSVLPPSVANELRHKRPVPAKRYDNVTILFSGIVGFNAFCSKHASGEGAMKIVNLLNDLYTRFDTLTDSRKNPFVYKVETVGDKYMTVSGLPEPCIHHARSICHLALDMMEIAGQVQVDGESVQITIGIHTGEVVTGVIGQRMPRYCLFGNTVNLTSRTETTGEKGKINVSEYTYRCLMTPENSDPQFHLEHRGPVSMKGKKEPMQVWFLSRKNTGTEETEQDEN
T1 sequence (P19687 1-691 partner): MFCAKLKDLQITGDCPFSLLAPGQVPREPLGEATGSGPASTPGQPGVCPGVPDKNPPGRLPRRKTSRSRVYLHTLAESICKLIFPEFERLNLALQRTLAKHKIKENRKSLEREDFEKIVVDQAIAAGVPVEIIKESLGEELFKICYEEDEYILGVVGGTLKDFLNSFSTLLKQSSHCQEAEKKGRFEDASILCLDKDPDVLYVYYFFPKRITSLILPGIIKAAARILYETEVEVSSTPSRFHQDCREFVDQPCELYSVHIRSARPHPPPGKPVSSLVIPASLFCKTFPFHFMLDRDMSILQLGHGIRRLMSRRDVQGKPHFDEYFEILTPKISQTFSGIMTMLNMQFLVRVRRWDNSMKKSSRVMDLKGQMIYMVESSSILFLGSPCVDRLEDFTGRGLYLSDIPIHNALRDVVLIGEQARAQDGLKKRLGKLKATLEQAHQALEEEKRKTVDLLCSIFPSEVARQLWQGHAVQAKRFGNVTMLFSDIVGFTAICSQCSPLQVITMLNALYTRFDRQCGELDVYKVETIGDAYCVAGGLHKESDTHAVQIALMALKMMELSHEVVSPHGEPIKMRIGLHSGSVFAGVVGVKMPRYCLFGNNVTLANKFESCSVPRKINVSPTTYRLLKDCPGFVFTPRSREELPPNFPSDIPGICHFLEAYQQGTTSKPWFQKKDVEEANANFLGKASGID
Experimental: (§1) Soluble guanylate cyclase (sGC) catalyzes the conversion of GTP into cGMP and pyrophosphate. In the presence of nicotinamide adenine dinucleotide (NAD^+) and nicotinamide mononucleotide adenylyltransferase (NAT, EC 2.7.7.1), pyrophosphate is converted into ATP and nicotinamide mononucleotide. The ATP formed can be quantified luminometrically with the aid of a luciferase in microtiter plates.
(§2) The substance to be investigated is dissolved in DMSO and diluted with DMSO/water to a final concentration of 50 μM in the assay mixture. The DMSO concentration in the assay mixture should not exceed 5% (v/v).
(§3) 100 μl of reaction mixture should contain 50 mM TEA buffer (pH 7.4), 3 mM MgCl2, 3 mM GSH, 0.1 mM GTP, 1 mM IBMX (isobutylmethylxanthine), 0.2 mM NAD^+, 0.4 mU of NAT, suitably diluted sGC enzyme solution (isolated from bovine lung as described by P. Humbert et al., Methods of Enzymology 195, 384-391 (1991)) and the test substance or solvent (for determining the basal enzyme activity). The reaction is started by adding the sGC. The reaction mixture is incubated at room temperature for 60 min and then stopped by cooling in ice and adding 50 mM EDTA, pH 8.0. […] The relative luminescence units (RLU) can be measured in a microtiter plate luminometer.
(§4) The sGC activity is obtained after subtracting the blank RLU (incubation without enzyme) from the measured RLU. […]

[2] = molecular target: T2, heme-free soluble guanylate cyclase (Bos taurus, UniProt P16068); assay: Activation of heme-free soluble guanylate cyclase; format: biochemical, bovine
T2 sequence (P16068 1-619): T1 sequence (P16068 1-619)
T2 sequence (P19687 1-691 partner): T1 sequence (P19687 1-691 partner)
Experimental: as §1, §2, §3, §4

EC50 [1]: 500 nM
stimulation of the activity [1]: 17.6 fold
stimulation of the activity [2]: 58.2 fold
EC50 ([2]; read-out: affinity): 2400 nM
SMILES: COc1cc(NS(=O)(=O)c2ccc(Cl)cc2)c(C(=O)Nc2ccc(S(=O)(=O)N3CCSCC3)cc2)cc1OC [2-(4-chlorophenylsulfonylamino)-4,5-dimethoxy-N-(4-(thiomorpholine-4-sulfonyl)phenyl)benzamide]

— patent US7309579B2, “Method for screening for activators of soluble guanylate cyclase having oxidized heme iron” (Sanofi-Aventis Deutschland GmbH, priority 1999, dated 2007)
